{"source": "patent US9726659B2", "about": "“CMPF as a biomarker for diabetes and associated methods” (The Governing Council of the University of Toronto, priority 2012, dated 2017)", "key": {"MIN6": {"tested_on": "MIN6", "assay": "Total insulin content in MIN6 cells", "type": "cell-based, murine", "details": "200 uM, 4 hrs, vs vehicle", "description": "In the absence of apoptosis and necrosis, CMPF must be impairing GSIS by causing beta cell dysfunction. First, the effect of CMPF treatment on insulin biosynthesis was investigated to determine if insulin is available to be released upon stimulation. MIN6, murine and human islets were treated with vehicle control, 20 uM and 200 uM CMPF for 4 hrs (MIN6) or 24 hrs (islets), and total insulin content measured. […] Lower total insulin content may be due to either defective insulin processing from proinsulin to mature insulin, or insufficient insulin transcription. To determine the mechanism through which CMPF is reducing total insulin content, quantitative PCR (qPCR) was performed on RNA that was isolated from murine islets treated with either vehicle control or 200 uM CMPF for 24 hrs."}, "[1]": {"tested_on": "islets from injected mice", "assay": "Islets isolated from IP injected mice after the OGTT (ex vivo)", "type": "in vivo", "description": "CD1 mice were injected IP with either vehicle control (black) or CMPF (white). Over the 7-day course of IP injections, mice were monitored for body weight (A), and random-fed blood glucose (B) and plasma insulin (C). […] The lower body weights on day 8 are following a 14-hour fast, immediately prior to the OGTTs. Following 7 consecutive days of CMPF injections, mice were fasted for 14 hrs and OGTTs were performed. […] (n=8 per group, p<0.05).\nTo assess the effect of in vivo administration of CMPF directly on the beta cells, the islets were isolated from the 3-day and 7-day IP injected mice immediately following the OGTT. […] The reduced total insulin content corresponded to lower insulin mRNA levels (FIG. 7D, 3-day injected used as representative), consistent with the in vitro studies described herein."}, "mice": {"tested_on": "mice", "assay": "Hyperinsulinemic euglycemic clamps after 7 days of IP injections", "type": "in vivo", "details": "7 days IP", "description": "A) Schematic illustrating injection and surgical timeline. B) Glucose infusion rate (C) glucose appearance and (D) disappearance rates and (E) glycolytic rate in 7 day CMPF-injected mice compared to vehicle controls (N=4/group). […] Values mean±SEM.\nHyperinsulinemic euglycemic clamps were performed as previously described (Liu et al., 2012) following 7 days of IP injections with either CMPF or vehicle. Internal and external cannulation was performed on day 3 of the injection protocol.\nAs shown in Example 1, elevated plasma CMPF results in glucose intolerance and impaired insulin secretion. […] To more thoroughly examine integrated glucose homeostasis, hyperinsulinemic euglycemic clamps were performed."}, "mouse islets [2]": {"tested_on": "mouse islets", "assay": "ROS accumulation in isolated islets (mitoSOX red, CM-H2-DCFDA)", "type": "cell-based", "details": "200 μM, after 4 and 24 hrs of treatment", "description": "A) Proinsulin in the media of 24 hr treated islets (n=4/group). B) Mitochondrial membrane potential (MMP) following acute addition of vehicle control or 200 μM of CMPF (N=3/group). C) ROS levels in 4- and 24-hour treated mouse islets with representative images (N=10-15 islets/mouse from 4 mice/group). D) Expression of antioxidant genes Cat and (e) Ucp2 (n=4/group). F) ROS accumulation in 24 hr-treated islets treated with 500 μM NAC (n=10 islets/mouse from 4 mice/group). G) GSIS and (h) total insulin content from 24 hr-treated islets co-treated with 500 μM NAC (n=4/group). Western blots showing (i) Ser9 phosphorylation of GSK3β, (j) Ser473 phosphorylation of AKT (n=3/group). K) Immunofluorescent staining showing nuclear translocation of FOXO1 and (l) PDX1 with CMPF and NAC treatment (n=3-6). Quantification of nuclear percentage of (m) FOXO1 and (n) PDX1 based on immunofluorescent staining with CMPF and NAC treatment. O) Western blots showing protein abundance of PDX1 and FOXO1. Values are mean+/−SEM. Student's t-test (a, c-j, m-o), one-way ANOVA (b). *P<0.05, **P<0.01, ***P<0.001.\nThe level of superoxide and H2O2 were determined using mitoSOX red and 2′,7′-dichlorodihydro fluorescein diacetate (CM-H2-DCFDA) respectively (Molecular Probes, Invitrogen, Canada) in isolated islets treated with either vehicle control or 200 μM CMPF for 4 or 24 hours, as previously described (Lee et al. 2009). […]"}, "mouse islets [3]": {"tested_on": "mouse islets", "assay": "Western blotting of treated mouse islets", "type": "cell-based", "description": "CMPF-treated and control mouse islets were lysed in RIPA buffer (Cell Signaling, Danvers, Mass., USA) containing protease inhibitor cocktail (Roche, Mississauga, ON, Canada). Lysates were spun at 12,000 rpm and supernatant was loaded onto a 4-15% SDS-PAGE gradient gel (BioRad, Mississauga, ON, Canada) and transferred onto PVDF membrane using a Turbo Blotter (BioRad). The membrane was probed with the corresponding antibodies, and imaged using Kodak Imager 4000pro (Carestream, Rochester, N.Y., USA).\n(§1) To determine the mechanism through which CMPF decreases insulin biosynthesis we examined its effect on these key regulators. Under normal conditions, AKT and GSK3β have reciprocal activities. Active pAKT phosphorylates and inactivates GSK3β, preventing phosphorylation of downstream targets (Humphrey et al., 2010). […] FOXO1 is normally sequestered in the cytosol due to phosphorylation by AKT (Kitamura et al., 2005). […] Altered activity of these transcription factors is further confirmed by decreased mRNA levels of key target genes including Inst, transcription factors Pdx1 and Mafa, proinsulin processing enzymes CpE, Pc1 and Pc2, and the glucose transporter Glut2 (Boucher et al., 2006; Kaneto et al. 2008) (FIG. 18a)."}, "[4]": {"tested_on": "dispersed CD1 mouse islet cells", "assay": "Immunofluorescent staining of FOXO1 and PDX1 localization", "type": "cell-based", "details": "CMPF-treated islets", "description": "The cellular localization of FOXO1 and PDX1 were determined in dispersed CD1 mouse islet cells using immunofluorescence. The presence of the organic anion transporters (OATs) were determined in dispersed human islet cells also using immunofluorescence. Staining was performed as previously described (Diao et al., 2008). Images were acquired using a confocal microscope (Quorum Wave FX Spinning Disc; Perkin Elmer, Waltham M L, USA) and Volocity software (Perkin Elmer).\nas §1"}, "islets": {"tested_on": "islets", "assay": "GSIS with CMPF conjugated to fatty acid-free BSA", "type": "cell-based", "details": "conjugated for 6 hours prior to addition of islets, N=3", "description": "CMPF was conjugated to fatty acid free BSA for 6 hours prior to addition of islets for green and blue bars. The same protocol used for the conjugation of oleate was used. Black and white bars indicate addition of CMPF with 0.1% BSA in the media without pre-conjugation. N=3. *P<0.05."}, "albumin": {"target": "albumin (Homo sapiens, UniProt P02768)", "sequence (P02768 25-609, species assumed)": "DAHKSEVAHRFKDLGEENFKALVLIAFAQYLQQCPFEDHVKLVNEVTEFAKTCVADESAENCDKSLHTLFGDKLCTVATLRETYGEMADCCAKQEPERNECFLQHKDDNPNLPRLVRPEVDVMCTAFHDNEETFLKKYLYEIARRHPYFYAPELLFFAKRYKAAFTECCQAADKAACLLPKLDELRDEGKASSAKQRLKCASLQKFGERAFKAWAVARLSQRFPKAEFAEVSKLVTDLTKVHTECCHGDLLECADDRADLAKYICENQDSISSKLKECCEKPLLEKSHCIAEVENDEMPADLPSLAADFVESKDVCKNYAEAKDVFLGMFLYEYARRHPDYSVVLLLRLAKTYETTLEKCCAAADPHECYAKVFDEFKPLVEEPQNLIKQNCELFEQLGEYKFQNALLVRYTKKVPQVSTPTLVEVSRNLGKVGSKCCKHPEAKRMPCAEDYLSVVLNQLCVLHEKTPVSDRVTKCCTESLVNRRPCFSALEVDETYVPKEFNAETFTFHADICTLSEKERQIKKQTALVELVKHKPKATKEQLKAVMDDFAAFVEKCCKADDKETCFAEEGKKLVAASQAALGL", "details": "cited from earlier work"}}, "data": [{"compound": "CCCc1oc(CCC(=O)O)c(C(=O)O)c1C", "note": "[CMPF, 3-carboxy-4-methyl-5-propyl-2-furanpropanoic acid]", "values": [{"measurement": "total insulin content", "setting": "MIN6", "value": "significantly reduced"}, {"measurement": "GSIS of isolated islets", "setting": "[1]; 3 days IP", "value": "impaired GSIS"}, {"measurement": "insulin mRNA of isolated islets", "setting": "[1]; 3 days IP", "value": "decreased insulin mRNA"}, {"measurement": "islet size", "setting": "[1]; 3 days IP", "value": "no significant difference"}, {"measurement": "total insulin content of isolated islets", "setting": "[1]; 3 days IP", "value": "decreased total insulin content"}, {"measurement": "insulin secretion of isolated islets under high glucose", "setting": "[1]; 7 days IP", "value": "significantly reduced insulin secretion"}, {"measurement": "insulin secretion of isolated islets under low glucose", "setting": "[1]; 7 days IP", "value": "significantly increased insulin secretion"}, {"measurement": "glucose appearance, basal", "setting": "mice", "value": "significantly lower"}, {"measurement": "glycolytic rate, response to insulin (post clamp/basal)", "setting": "mice", "value": "no difference"}, {"measurement": "insulin appearance post-clamp", "setting": "mice", "value": "significantly reduced"}, {"measurement": "glucose infusion rate", "setting": "mice; N=4/group", "value": "significant reduction"}, {"measurement": "increase in ROS over controls", "setting": "mouse islets [2]", "value": 2, "unit": "fold"}, {"measurement": "AKT (Ser473) phosphorylation", "setting": "mouse islets [3]; 24 hr treatment", "value": "significantly impaired"}, {"measurement": "GSK3β (Ser9) phosphorylation", "setting": "mouse islets [3]; 24 hr treatment", "value": "significantly impaired"}, {"measurement": "absolute protein levels of PDX1 and FOXO1", "setting": "mouse islets [3]; CMPF-treated islets", "value": "not significantly different"}, {"measurement": "FOXO1 localization", "setting": "[4]", "value": "translocated to the nucleus"}, {"measurement": "PDX1 localization", "setting": "[4]", "value": "sequestered outside of the nucleus"}, {"measurement": "effect of conjugation to fatty acid-free BSA on CMPF-impaired GSIS", "setting": "islets", "value": "no effect"}, {"measurement": "albumin binding", "setting": "albumin", "value": "highly albumin-bound"}]}]}
